Laboratory results as given in patent US6716883B1, “Composition useful to treat periodontal disease” (priority 1998, dated 2004).

Experiments:
Assay type in all cases: cell-based
[1] = tested on: chick periosteal osteogenesis (CPO) cultures; test: Newly synthesized 14C-labeled collagen type I in CPO cultures
Experimental: (§1) For the purposes of this investigation, the effects of a potent aryl hydrocarbon, TCDD (2,3,7,8-tetrachlorodibenzo-p-dioxin or dioxin) on the early events occurring during osteogenesis were determined. The CPO model traverses a number of phases of osteogenesis. Therefore, it was possible to design temporal or “window” experiments in order to determine the phases of osteogenesis that were sensitive to TCDD and/or resveratrol. […] All cultures were maintained for the entire 6-day period. The compounds were administered over four different temporal phases, as outlined below in the time-line diagram: a) days 0-6; b) days 0-2; c) days 2-4 or d) days 4-6 (Note: all cultures were stopped at 6 days). Results were compared to e) vehicle alone over days 0-6. [drawing 1]
Radiolabeled collagen was measured in CPO cultures incubated with ^14C-glycine (Amersham, 59 mCi/mMole) at a concentration of 10 μci/ml media in each group over days 4-6. The cultures were hydrolyzed in 0.1 ml of 0.1N HCl and vortexed. After 15 minutes, the supernatant was removed and saved in a 2 ml eppendorf tube. The culture was transferred to a 0.5 ml eppendorf tube containing 0.1 ml of pepsin (50 μg/ml in 0.1% glacial acetic acid) for further digestion of labeled collagen. These were maintained in a 15° C. water bath for 5 hours, vortexing the samples every hour. The supernatant was transferred to a new 0.5 ml eppendorf tube and was then lyophilized overnight. The amount of radiolabeled collagen was determined by gel electrophoresis as described hereunder. The lyophilized samples were reconstituted with 0.1 ml of a solution made of 70% sample buffer (10 mM Tris.HCl and 1 mM EDTA, pH 8.0) (Sigma-Aldrich Canada Ltd., Oakville, Canada), 2.5% SDS (Sigma), 5% β-mercaptoethanol (Sigma) and 0.01% bromophenol-blue (Sigma). […]
Fluorography was used to analyze the amount of newly synthesized ^14C-labeled collagen in each sample. […] The intensity of the resultant bands on the film was quantified using a laser densitometer to give a measure of the amount of newly synthesized collagen in each sample.

[2] = tested on: chick periosteal osteogenesis (CPO) cultures; test: Alkaline phosphatase activity (APA) in CPO cultures
Experimental: In this experiment, the chick periosteal osteogenesis (CPO) model was used to determine if bone loss is induced by dioxin. The CPO model has been described in detail previously (Nijweide, Proc. Kon. Ned. Akad. Wet. 1975. C78:410-417) and was prepared for the purposes of this experiment as set out below.
Following sacrifice, two triangular calvarial explants were removed by cutting along the central suture, transversely along the posterior suture and laterally above the eye in 17-day-old embryonic chicks. The ectocranial periosteum (outer curved surface) was peeled off using forceps under microscopic magnification and folded so that the surface originally facing bone was in apposition to itself as described previously (Tenenbaum et al., Calcif Tissue Int. 34:76-79). The folded explant was then placed on a Millipore filter (HA 0.45 μm), which was transferred onto a stainless steel grid resting in the center well of an organ culture dish (Falcon Plastics, Lincoln Park, N.J., USA) that was filled with culture media to a level such that the culture was supported at the gas-liquid interface (˜1.5 ml of media). Three cultures were placed in each dish which was then covered and incubated at 37° C. in a humidified atmosphere containing 5% CO2 in air. Media changes occurred on days 2 and 4, and the medium was comprised of BGJb medium (Fitton-Jackson Modification) with L-glutamine (Gibco, Grand Island, N.Y., USA) and supplemented with 2% antibiotic (10,000 units/ml Penicillin G sodium, 10,000 μg/ml Streptomycin sulfate in 0.85% saline) (Gibco), 10% fetal calf serum (Gibco), 10^−7M dexamethasone (Sigma, St. Louis, Mo., USA), 10 mM β-glycerophosphate, and 300 μg/ml L-ascorbate (Gibco).
as §1
On day 6, the culture dishes were placed on ice and individual cultures were transferred to separate test tubes and stored at −20° C. for further analysis.
CPO cultures were assayed for AP activity using paranitrophenol-phosphate (pN-p) as the substrate (Demetriou et al. J Biol Chem. 1996. 271(22)12755-61). The intensity of the colour change was evaluated using a Titertek® Multiskan® MCC/340 Spectrophotometer (Flow Laboratories, Mississauga, ON, Canada) and compared to a standard curve obtained from a serial dilution of 10 mM pN with bicarbonate buffer (pH 7.4) in flat bottomed Titertek 96-well plates as described previously (Demetriou et al., 1996, supra). The reaction was stopped with 100 μl of 0.2N NaOH and pN-p levels read at 405 nm on the Titertek. Calcium incorporation was assayed in the pellets produced from centrifugation of the homogenized CPO cultures following hydrolysis in 500 μl of 0.5N HCl and then measured using atomic absorption spectrophotometry (Sukhu et al. Endocrinology. 1997. 138 (8):3269-75).

[3] = tested on: rat bone marrow cultures; test: APA in rat bone marrow cultures treated with BaP; settings: resveratrol (10^−6M) added with BaP
Experimental: In this experiment, the effects of the aryl hydrocarbon, benzo-a-pyrene (BaP) on the early events occurring during osteogenesis were determined. Ten-day old rat bone marrow cultures were treated with increasing concentrations of BaP. The effect of this treatment was monitored by APA as set out above.

[4] = tested on: rat bone marrow cultures; test: Mineral levels in rat bone marrow cultures treated with BaP; settings: resveratrol and BaP together

Row | Compound | decrease in newly synthesized collagen type I levels ([1]; 10^−9M TCDD alone, p>0.05) | reduction in AP activity ([2]; 10^−9M TCDD alone during days 0-2, p<0.05 vs. vehicle) [%] | change in AP activity ([2]; 10^−9M TCDD alone during days 2-4 or 4-6) | reduction in AP activity versus vehicle alone ([2]; 10^−9M TCDD over a 6-day period) [%] | reversal of BaP's inhibitory effect on alkaline phosphatase [3] | newly synthesized collagen type I levels ([1]; 10^−6M resveratrol alone, compared to vehicle) | newly synthesized collagen type I level ([1]; co-treatment with TCDD and resveratrol, versus TCDD alone) | change in AP activity ([2]; 10^−6M resveratrol alone over days 0-6, 0-2, 2-4 or 4-6) | increase in AP activity in comparison to TCDD alone ([2]; resveratrol 10^−5M, 10^−6M and 10^−7M with TCDD, FIG. 2a) | reversal of BaP effects on mineral levels ([4]; BaP 10^−8M) | reversal of BaP effects on mineral levels ([4]; higher concentrations of BaP)
1 | Clc1cc2c(cc1Cl)Oc1cc(Cl)c(Cl)cc1O2 [TCDD, 2,3,7,8-tetrachlorodibenzo-p-dioxin] | about 30% | 53 | did not significantly alter AP activity | 80 | – | – | – | – | – | – | –
2 | Oc1ccc(C=Cc2cc(O)cc(O)c2)cc1 [resveratrol, 3,5,4′-trihydroxystilbene] | – | – | – | – | reversal of BaP's inhibitory effect | no effect | not significantly different | No significant change in AP activity | 2-4 fold | complete reversal | partial reversal
